According to patent US10183273B2, “Absorbent article comprising cyclodextrin complexes” (The Procter & Gamble Company, priority 2016, dated 2019):

Experiment: Thiol Vapor Pressure Suppression (TVPS) index, zNose fast GC headspace
Design: key: % reduction in butanethiol headspace peak area vs control
Conditions: percentage reduction in butanethiol headspace peak area; 5 μl compound, 37° C. 4 hours
Excerpt: (§1) Thiol Vapor Pressure Suppression (TVPS) index is a measure of the reduction in butanethiol concentration in the headspace by a compound, as measured using a fast GC instrument, the zNose 7100 (Electronic Sensor Technologies, Newbury Park, Calif.).
as §1, with “Calif.) based on an Surface Acoustic Wave (SAW) Quartz microbalance detector, or equivalent.” for “Calif.).”
Before any measurements the instrument is calibrated according to manufacturer's instructions under the same experimental settings. The instrument has a DB-5 column (also available from Electronic Sensor Technologies, Newbury Park, Calif.) 1 m in length, 0.25 μm phase thickness, and 0.25 mm in diameter.
For analysis, the zNose is programmed with the Sensor Temperature, Inlet Temperature, Valve Temperature, and Initial Column Temperature all set to 40° C. The oven is temperature gradient is programmed at a rate of 10 C°/s from 40° C. to a final temperature of 200° C.
TVPS of a compound is measured in the following way: 100 μl±1 μl of a 1% v/v butanethiol (99%, purity, available from Sigma-Aldrich, St. Louis, Mo.) solution in ethanol (200 proof) is added into a 1 ml vial (8×40 mm). These vials are borosilcate glass straight walled vial. In another 1 ml vial (8×40 mm), 5 μl±0.2 μl of the compound is added. Both open vials are then placed inside a 20 mL headspace vial (22×75 mm), and the vial is immediately sealed using a screw thread closure with PTFE/Silicone septa. The vial is heated to 37° C. for 4 hours. After 4 hours, the vial is removed from the oven and let to equilibrate at 25° C.±2° C. for 15 minutes. The headspace inside the vial is sampled using the zNose is sampled for 10 s and analyzed following the experimental protocol outlined above. Samples with butanethiol alone, and the volatile active alone, are run using the same protocol to identify the peaks for both materials. An acceptable retention index for butanethiol is 720±30. If the peaks butanethiol peak and the volatile material peak co-elute, one skilled in the art can modify the protocol settings to separate those peaks to achieve a minimum resolution of 1.5. For example one can change the column temperature ramp rate. In between samples, the instrument needs to be cleaned to remove any trace materials. To clean the instrument, the instrument is run without samples as needed until no peaks greater than 100 counts are observed.
The amount of butanethiol in the headspace is measured from the area of the peak on the chromatograph for butanethiol (ABtSH,Rx). To calculate the percentage of butanethiol reduction in the headspace, a control with the butanethiol solution without the volatile material is run in the same manner and the area is measured as well (ABtSH,C). TVPS is then measured as the percentage reduction in butanethiol area calculated using the following formula: […]

| SMILES | TVPS |
| --- | --- |
| Cc1ccc(C=O)s1 [5-methyl-2-thiophene-carboxaldehyde] | 67.4 |
| CC1=CC(C)C(C=O)CC1 (stereo not drawn) [ligustral] | 42.5 |
| CCCCCCC(C=O)=Cc1ccccc1 [Hexylcinnamic aldehyde] | 8.0 |
| CC(C)c1cccc(C(C)CC=O)c1 (stereo not drawn) [Florhydral] | 53.3 |
| CC(C)=CCCC(C)C=O (stereo not drawn) [melonal] | 20.4 |
| C=CC(C)CCC=C(C)CCC=O (stereo not drawn) [Floral Super] | 52.4 |
| CCC/C=C/C=O [trans-2-hexenal] | 27.1 |
| CC(C)=CCCC(C)CCCC(C)C=O (stereo not drawn) [adoxal] | 24.4 |
| CC(C)=CCC/C(C)=C\C=O [neral] | 17.1 |
